Read-outs that look alike come from different tables or passages of the source.
Assays:
Type in all cases: biochemical
SULT1A1*1 = target: T1, SULT1A1*1 (Homo sapiens, UniProt P50225); assay: Inhibition of 3-OH-BaP sulfotransferase activity by OH-PCBs with cDNA-expressed SULT1A1*1; conditions: for IC50: mean of duplicates
T1 construct: made in house; host or cells: Escherichia coli
Text: (§1) The expression of human SULT1A1*1, SULT1A3, SULT1B1, and SULT1E1 in Escherichia coli has been described previously ([Dajani et al. 1998]; [Wang et al. 1998]). We grew E. coli cells containing the respective sulfotransferase genes as described previously ([Falany et al. 1990], [1994]), and prepared 100,000g supernatant fractions for use in inhibition studies and for partial purification of the SULT enzymes. We purchased expressed SULT1A1*2 cytosolic extract from PanVera (Madison, WI) and used it as supplied.
(§2) We determined SULT activity with 3-OH-BaP as substrate by a fluorimetric assay of BaP-3-SO4 product formation, as described previously ([Wang et al. 2004]). […] Duplicate tubes were prepared for each incubation condition. We examined the kinetics of sulfonation in three liver cytosol fractions by systematically varying the concentration of 3-OH-BaP or PAPS. When the variable substrate was 3-OH-BaP, we used 12 concentrations in the range from 0.035 to 2.00 μM, and the concentration of PAPS was kept constant at 10 μM. When we varied PAPS, we used 7 concentrations from 0.157 to 10.0 μM and kept the concentration of 3-OH-BaP constant at 0.100 μM.
(§3) For each OH-PCB, we examined the concentration dependence of inhibition with three liver cytosol fractions, as well as with cytosol fractions from the E. coli expressing SULT1A1*1, SULT1A3, SULT1B1, and SULT1E1, and the purchased Sf-9 cytosol fraction (PanVera, Madison, WI) containing SULT1A1*2. For studies with HL cytosol, SULT1A1*1, and SULT1E1, we examined two concentrations of 3-OH-BaP, 0.1 μM and 1.0 μM.
(§4) We calculated the effects of OH-PCBs on 3-OH-BaP SULT activity as percentage inhibition compared with the controls without an inhibitor. We obtained IC50 values by fitting log OH-PCB concentration and percent control activity to a sigmoidal curve. We examined the relationships between IC50 and physicochemical properties of the OH-PCBs by linear correlation analysis. We calculated the inhibitory constant (Ki) from the kinetic studies with 4′-OH-CB112 by means of Dixon plots and plots of Km/Vmax against inhibitor concentration ([Cornish-Bowden 1995]).

SULT1A1*2 [1] = target: T2, SULT1A1*2 (Homo sapiens, UniProt P50225, R213H); assay: Inhibition of 3-OH-BaP sulfotransferase activity by OH-PCBs with expressed SULT1A1*2
T2 construct: purchased PanVera (Madison, WI); host or cells: Sf-9
Text: as §1, §2, §3, §4

SULT1E1 = target: T3, SULT1E1 (Homo sapiens, UniProt P49888); assay: Inhibition of 3-OH-BaP sulfotransferase activity by OH-PCBs with cDNA-expressed SULT1E1; conditions: for IC50: mean of duplicates
T3 construct: made in house; host or cells: Escherichia coli
T3 sequence (P49888 1-294): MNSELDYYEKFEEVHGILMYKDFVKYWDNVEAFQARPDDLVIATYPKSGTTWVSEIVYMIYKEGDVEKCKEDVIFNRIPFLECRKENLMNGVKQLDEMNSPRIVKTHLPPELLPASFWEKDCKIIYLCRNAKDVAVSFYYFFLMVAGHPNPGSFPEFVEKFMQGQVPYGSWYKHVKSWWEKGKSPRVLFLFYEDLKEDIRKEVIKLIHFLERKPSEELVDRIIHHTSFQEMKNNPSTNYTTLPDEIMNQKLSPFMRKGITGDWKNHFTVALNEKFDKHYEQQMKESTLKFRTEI
Text: as §1, §2, §3, §4

SULT1B1 = target: T4, SULT1B1 (Homo sapiens, UniProt O43704); assay: Inhibition of 3-OH-BaP sulfotransferase activity by OH-PCBs with cDNA-expressed SULT1B1; conditions: for IC50: mean of duplicates
T4 construct: made in house; host or cells: Escherichia coli
Text: as §1, §2, §3, §4

SULT1A3 = target: T5, SULT1A3 (Homo sapiens, UniProt P0DMM9); assay: Inhibition of 3-OH-BaP sulfotransferase activity by 50 μM OH-PCBs with cDNA-expressed SULT1A3; conditions: for inhibition at 50 µM: read-out: inhibition of 3-OH-BaP sulfonation by SULT1A3
T5 construct: made in house; host or cells: Escherichia coli
Text: as §1, §2, §3, §4

[2] = target: HL cytosol 3-OH-BaP sulfotransferase (Homo sapiens, UniProt P50225); assay: Kinetics of 3-OH-BaP sulfotransferase inhibition by 4′-OH-CB112 in HL cytosol
Method: To study the type of inhibition produced by OH-PCBs, we used 4′-OH-CB112 (B5) as a model inhibitor. We prepared four sets of assay tubes containing HL cytosol and varying amounts of 3-OH-BaP from 35 to 150 nM: one set (control) contained no 4′-OH-CB112; the other sets contained 0.25 μM, 0.5 μM, or 1.0 μM 4′-OH-CB112.
as §4

[3] = target: HL cytosol sulfotransferase (Homo sapiens, UniProt P50225); assay: Kinetics of 3-OH-BaP sulfonation by human liver cytosol (fluorimetric assay of BaP-3-SO4 formation); conditions: HL cytosol, 0.1 μM 3-OH-BaP, varying PAPS, mean ± SD n = 3
Method: F.P. Guengerich (Vanderbilt University) kindly donated the samples of human liver, which were procured from organ donors ([Guengerich 1995]). We prepared liver cytosolic fractions from four livers by standard methods and stored aliquots at −80°C until use ([Wang et al. 2004]). We used three or four of these cytosol fractions in each experiment.
as §2
(§5) We calculated the enzyme kinetic parameters from studies with variable concentrations of 3-OH-BaP using nonlinear regression analysis and GraphPad 4.0 software (GraphPad Software, San Diego, CA). We selected the built-in Michaelis-Menten equation for most analyses. Where we found evidence of 3-OH-BaP substrate inhibition, we fit the data into an equation derived from a two-substrate model ([Zhang et al. 1998]): […]
(§6) This equation denoted the constant for binding of the first substrate (S) molecule as Km and the second substrate molecule as Ki. V1 is the maximum rate for the noninhibitory substrate concentration range, and V2 is the minimum rate in the inhibitory substrate concentration range

SULT1A1*2 [4] = target: T2, SULT1A1*2; assay: Kinetics of 3-OH-BaP sulfonation by expressed SULT1A1*2; conditions: expressed SULT1A1*2, 0.1 μM 3-OH-BaP, varying PAPS
Text: as §1, §2
We determined the kinetic parameters for 3-OH-BaP sulfonation by partially purified preparations of the cDNA-expressed SULT isozymes under incubation conditions similar to those used for liver cytosol. For SULT1A1*1 and -1A1*2, we used seven substrate concentrations in the range from 5 to 100 nM; for SULT1E1 we used […] 3-OH-BaP concentrations from 15.6 to 1,000 nM; and for SULT1A3 and 1B1 we used seven concentrations of 3-OH-BaP from 0.25 to 5.0 μM.
as §5, §6

[5] = 0.1 μM 3-OH-BaP, read-out: IC50 SULT1A1*1
[6] = 1.0 μM 3-OH-BaP, read-out: IC50 SULT1A1*1
[7] = 0.1 μM 3-OH-BaP, mean of duplicates, read-out: IC50 SULT1A1*2
[8] = 0.1 μM 3-OH-BaP, read-out: IC50 SULT1E1
[9] = 1.0 μM 3-OH-BaP, read-out: IC50 SULT1E1
[10] = 1.0 μM 3-OH-BaP, read-out: IC50 SULT1B1
[11] = IC50 SULT1A1*1, 0.1 μM 3-OH-BaP
[12] = IC50 SULT1A1*1, 1.0 μM 3-OH-BaP

T2 sequence (P50225 whole entry R213H): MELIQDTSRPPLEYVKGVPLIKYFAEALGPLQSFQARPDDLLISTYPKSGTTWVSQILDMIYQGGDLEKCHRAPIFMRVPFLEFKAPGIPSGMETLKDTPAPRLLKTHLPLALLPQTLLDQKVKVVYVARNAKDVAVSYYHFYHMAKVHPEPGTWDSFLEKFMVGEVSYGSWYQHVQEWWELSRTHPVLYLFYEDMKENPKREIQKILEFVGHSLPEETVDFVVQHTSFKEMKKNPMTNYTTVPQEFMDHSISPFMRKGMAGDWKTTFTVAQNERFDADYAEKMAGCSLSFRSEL
T4 sequence (O43704 whole entry): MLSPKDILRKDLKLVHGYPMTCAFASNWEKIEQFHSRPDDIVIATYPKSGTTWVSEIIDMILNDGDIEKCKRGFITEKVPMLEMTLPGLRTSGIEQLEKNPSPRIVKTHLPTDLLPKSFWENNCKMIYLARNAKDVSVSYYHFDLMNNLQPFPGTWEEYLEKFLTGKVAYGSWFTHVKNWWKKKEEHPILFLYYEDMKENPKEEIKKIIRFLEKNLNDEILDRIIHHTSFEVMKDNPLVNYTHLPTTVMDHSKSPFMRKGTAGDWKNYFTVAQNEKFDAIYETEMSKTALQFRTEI
HL cytosol 3-OH-BaP sulfotransferase, sequence (P50225 whole entry): as the sequence (P50225 whole entry R213H) above, with H213R counted along it
T5 sequence (P0DMM9 whole entry): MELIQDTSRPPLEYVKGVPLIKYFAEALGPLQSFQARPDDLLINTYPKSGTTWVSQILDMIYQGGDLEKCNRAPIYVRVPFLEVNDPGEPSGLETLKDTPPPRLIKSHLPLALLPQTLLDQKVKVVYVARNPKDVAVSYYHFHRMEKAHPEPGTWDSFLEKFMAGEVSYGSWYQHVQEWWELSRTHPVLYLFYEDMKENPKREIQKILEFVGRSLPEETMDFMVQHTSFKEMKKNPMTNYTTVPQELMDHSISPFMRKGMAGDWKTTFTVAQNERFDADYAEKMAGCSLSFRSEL
HL cytosol sulfotransferase, sequence (P50225 whole entry): as the sequence (P50225 whole entry R213H) above, with H213R counted along it

Structure (SMILES)	IC50 (SULT1A1*1; [5]) [µM]	IC50 (SULT1A1*1; [6]) [µM]	IC50 (SULT1A1*2 [1]; [7]) [µM]	IC50 (SULT1E1; [8]) [µM]	IC50 (SULT1E1; [9]) [µM]	IC50 (SULT1B1; [10]) [µM]	inhibition of 3-OH-BaP sulfonation by SULT1A3 (SULT1A3; 50 μM OH-PCB, 1.0 μM 3-OH-BaP)	inhibition at 50 µM (SULT1A3; 50 μM OH-PCB, 1.0 μM 3-OH-BaP) [%]	also measured
Oc1ccc(Cl)cc1-c1ccc(Cl)c(Cl)c1 [Compound A1, 6′-OH-CB35]	> 100	> 100	> 100	~100	> 100	4.72	did not inhibit		inhibitory potency in words, SULT1A1*1 (SULT1A1*1; both substrate concentrations (0.1 and 1.0 μM 3-OH-BaP)): poor inhibitor; inhibitory potency in words, SULT1E1 (SULT1E1; either substrate concentration (0.1 and 1.0 μM 3-OH-BaP)): poor inhibitor; inhibitory potency in words, SULT1B1 (SULT1B1; 1.0 μM 3-OH-BaP): fairly potent inhibitor
Oc1ccc(-c2ccc(Cl)c(Cl)c2)cc1Cl [Compound B1, 4′-OH-CB35]	0.77	25.2	0.55	0.24	1.02	16.8		2 to 20	
Oc1ccc(-c2cc(Cl)cc(Cl)c2)cc1Cl [Compound B2, 4′-OH-CB36]	1.31	28	0.94	0.45	1.89	37		2 to 20	
Oc1ccc(-c2c(Cl)cc(Cl)cc2Cl)cc1Cl [Compound B3, 4′-OH-CB69]	1.16	67.5	1.31	4.87	30.8	> 100	did not inhibit		
Oc1ccc(-c2cc(Cl)c(Cl)c(Cl)c2Cl)cc1Cl [Compound B4, 4′-OH-CB106]							did not inhibit		IC50 (SULT1A1*1; [11]): 1.07 µM; IC50 (SULT1A1*1; [12]): 10.3 µM; IC50 (SULT1A1*2 [1]): 1.06 µM; IC50 (SULT1E1; IC50 SULT1E1, 0.1 μM 3-OH-BaP): 1.18 µM; IC50 (SULT1E1; IC50 SULT1E1, 1.0 μM 3-OH-BaP): 6.97 µM; IC50 (SULT1B1; IC50 SULT1B1, 1.0 μM 3-OH-BaP): 17.4 µM
Oc1ccc(-c2c(Cl)c(Cl)cc(Cl)c2Cl)cc1Cl [Compound B5, 4′-OH-CB112]	1.17	42.5	1.48	5.35	23.2	86.5	did not inhibit		type of inhibition ([2]; 3-OH-BaP 35 to 150 nM): noncompetitive; Vmax (3-OH-BaP sulfotransferase activity) ([2]; in presence of 0.25 μM B5, two livers): 56.3 ± 6.0 B pmol/min/mg protein; Vmax (3-OH-BaP sulfotransferase activity) ([2]; in presence of 0.5 μM B5, n = 3): 41.2 ± 3.3 C pmol/min/mg protein; Vmax (3-OH-BaP sulfotransferase activity) ([2]; in presence of 1.0 μM B5, n = 3): 33.3 ± 3.2 D pmol/min/mg protein
Oc1c(Cl)cc(-c2ccc(Cl)c(Cl)c2)cc1Cl [Compound C1, 4′-OH-CB79]									IC50 (SULT1A1*1; [11]): 6.65 µM; IC50 (SULT1A1*1; [12]): 59.8 µM; IC50 (SULT1A1*2 [1]): 4.57 µM; IC50 (SULT1E1; IC50 SULT1E1, 0.1 μM 3-OH-BaP): 0.5 µM; IC50 (SULT1E1; IC50 SULT1E1, 1.0 μM 3-OH-BaP): 1.32 µM; IC50 (SULT1B1; IC50 SULT1B1, 1.0 μM 3-OH-BaP): 39.9 µM; inhibition at 50 µM (SULT1A3): 2 to 20%
Oc1c(Cl)cc(-c2cccc(Cl)c2)cc1Cl [Compound C2, 4-OH-CB36]	3.09	> 100	3.05	0.41	1.65	47.5		43	
Oc1c(Cl)cc(-c2c(Cl)cc(Cl)cc2Cl)cc1Cl [Compound C3, 4′-OH-CB121]							did not inhibit		IC50 (SULT1A1*1; [11]): 8.15 µM; IC50 (SULT1A1*1; [12]): 99.5 µM; IC50 (SULT1A1*2 [1]): 6.52 µM; IC50 (SULT1E1; IC50 SULT1E1, 0.1 μM 3-OH-BaP): 7.98 µM; IC50 (SULT1E1; IC50 SULT1E1, 1.0 μM 3-OH-BaP): 16.7 µM; IC50 (SULT1B1; IC50 SULT1B1, 1.0 μM 3-OH-BaP): > 100 µM
Oc1c(Cl)cc(-c2cc(Cl)c(Cl)c(Cl)c2Cl)cc1Cl [Compound C4, 4′-OH-CB159]	2.16	34.1	1.67	1.3	3.55	> 100		2 to 20	
Oc1c(Cl)cc(-c2c(Cl)c(Cl)cc(Cl)c2Cl)cc1Cl [Compound C5, 4′-OH-CB165]	2.58	54.8	2.59	6.96	21.4	> 100	did not inhibit		
Oc1c(Cl)cc(-c2cc(Cl)ccc2Cl)cc1Cl [Compound C6, 4′-OH-CB72]	2.21	33.8	2.03	0.57	2.28	> 100	did not inhibit		
Nc1ncnc2c1ncn2[C@@H]1O[C@H](COP(=O)(O)OS(=O)(=O)O)[C@@H](OP(=O)(O)O)[C@H]1O [PAPS, 3′-phosphoadenosine 5′-phosphosulfate]									Vmax (varying PAPS) [3]: 48 ± 2 pmol/min/mg protein; Km ([3]; read-out: apparent Km for PAPS): 0.56 ± 0.09 µM; Vmax (varying PAPS) (SULT1A1*2 [4]): 684 pmol/min/mg protein; Km (SULT1A1*2 [4]; read-out: apparent Km for PAPS): 0.32 µM
